Measurements taken from patent US20080221070A1, “METHODS AND COMPOUNDS FOR THE TARGETED DELIVERY OF AGENTS TO BONE FOR INTERACTION THEREWITH” (priority 2007, published 2008).

What was measured:
[1] = Hydroxyapatite (HA) Binding Assay; settings: binding to hydroxyapatite; 10^−5 M analyte, 50 mM Tris-HCl pH 7.4, 1% DMSO; tetracycline reference
From the text: The supernatant was transferred to another microcentrifuge tube.

[2] = tested on: bilaterally ovariectomized (OVX) rats; test: Uterine mass and uterine mass to body weight ratio in OVX rats; assay type: in vivo, Sprague-Dawley female rats; settings: for effect on uterine mass to body weight ratio: FIG. 9
Experimental: (§1) Animals. Six month old, bilaterally ovariectomized (OVX) or sham operated Sprague-Dawley female rats (Harlan Laboratories, Indianapolis, Ind.) were maintained at the University of Louisville Research Resources Center at 22° C. with a 12-h light/dark cycle and ad libitum access to tap water and rodent chow (Purina Laboratory Rodent Diet 5001). All animal procedures were approved by the Institutional Animal Care and Use Committee, which is certified by the American Association for Accreditation of Laboratory Animal Care.
(§2) In vivo experiments were conducted in order to investigate the efficacy of compounds of the presently-disclosed subject matter. In all of the experiments, OVX and sham operated rats were randomly divided into groups of 5-7 animals. In all of the studies experimental groups included: i) Sham-operated control (euthanized six weeks post surgery as a pretreatment control), ii) OVX control (euthanized six weeks post surgery as a pretreatment control), iii) Sham control receiving vehicle, iv) OVX control receiving vehicle, v) OVX receiving 17-ethinyl estradiol (equimolar concentration with a selected test compound), vi) OVX receiving alendronate (1.6 mg/kg), and vii) OVX receiving parathyroid hormone 1-34 (PTH) (80 μg/kg). 17-ethinyl estradiol (17 EE) is a free estrogenic agent known to be orally active, and can serve as an example of an anti-catabolic agent. Alendronate (Alen) is a bisphosphonate that is currently used to treat osteoporosis (e.g., Fosamax®, Merck & Co., Inc,), and can serve as an example of an anti-catabolic agent. Parathyroid hormone 1-34 (PTH) is an agent that can serve as an example of an anabolic agent. All compounds and vehicle (1% DMSO in corn oil) were administered three times per week orally by gavage except for PTH which was administered via a subcutaneous injection in a volume of 0.5 ml/kg body mass thrice per week. Compound administration was initiated 6 weeks following surgery and lasted for 6 weeks (18 doses total).
(§3) Compounds of the presently-disclosed subject matter were orally administered to OVX rats at various doses. As indicated above all BTE's were administered three times per week for 6 weeks.
(§4) Following 6 weeks of treatment, blood was obtained from each animal via cardiac puncture following an overnight fast and animals were subsequently euthanized via carbon dioxide asphyxiation. Blood was centrifuged immediately and the obtained serum samples were aliquoted and stored at −70° C. prior to analysis. Uteri were removed and fresh weights were obtained. Uterine masses were normalized to body mass at the end of the experiment. The left and right femora and left and right tibiae were subsequently collected from each animal, cleaned of soft tissue, and stored in saline at 4° C. prior to analysis.
Uterine Mass and Body Weight. […] Uterine mass can be used to as a measure of estrogenic effect occurring in a tissue outside the bone in response to treatment with a test compound or composition. Generally, a lower uterine mass can be associated with a decreased risk of adverse side effects associated with the test compound or composition. A ratio of uterine mass to body weight can be used to correct for any increase in uterine size attributable to the relative size of the individual animal. Body weight and/or uterine mass also serve as an indirect measures of toxicity of a test compound.

[3] = tested on: bilaterally ovariectomized (OVX) rats; test: RatLaps ELISA for C-telopeptide fragments of collagen type I (CTX-I) in serum; assay type: in vivo, Sprague-Dawley female rats; settings: Formulas 66 and 67 at 250 μg/kg doses, 17-ethinyl estradiol equimolar, FIG. 16
Experimental: as §1
as §2, with “All compounds and vehicle (1% DMSO in corn oil) were administered three times per week orally by gavage except for PTH which was administered via a subcutaneous injection in a volume of 0.5 ml/kg body mass thrice per week. Compound administration was initiated 6 weeks following surgery and lasted for 6 weeks (18 doses total).” left out
RatLaps™ ELISA for C-telopeptide Fragments of Collagen Type I (CTX-I). […] Bone resorption (CTX-I) was quantitatively assessed in rat serum using the commercially available RatLaps™ ELISA KIT from Nordic Bioscience Diagnostics A/S (Herlev, Denmark) as recommended by the manufacturer.

[4] = Body weight of OVX rats during treatment; assay type: in vivo, Sprague-Dawley female rats
Experimental: as §1, §2, §3, §4
Uterine Mass and Body Weight. […]

[5] = tested on: bilaterally ovariectomized (OVX) rats; test: Femoral density via Archimedes' Principle (whole bone); assay type: in vivo, Sprague-Dawley female rats; settings: right femora
Experimental: as §1, §2
(§5) Following 6 weeks of treatment, blood was obtained from each animal via cardiac puncture following an overnight fast and animals were subsequently euthanized via carbon dioxide asphyxiation. Blood was centrifuged immediately and the obtained serum samples were aliquoted and stored at −70° C. prior to analysis. Uteri were removed and fresh weights were obtained. […]
Femoral Density via Archimedes' Principle. […] Densities were determined using Archimedes' Principle according to the following formula: density=[mass of hydrated femur/(mass of hydrated femur−mass of hydrated femur submerged in water)]×density of distilled water at a given temperature (See Keenan, et al. Comparison of bone density measurement techniques: DXA and Archimedes' principle. J Bone Miner Res 1997; 12:1903-7.). […]

[6] = tested on: bilaterally ovariectomized (OVX) rats; test: Regional femoral density via Archimedes' Principle; assay type: in vivo, Sprague-Dawley female rats
Experimental: as §1, §2
as §5, with “obtained. Uterine masses were normalized to body mass at the end of the experiment.” for “obtained.”
Regional Femoral Density via Archimedes' Principle. […] Briefly, each femur was measured with a Cen-Tech Digital Caliper and a cut was made from each end at 20% of the length of the femur plus half the width of the blade. Subsequently, the bone marrow was washed out of the femoral diaphysis and the Archimedes density for each of the three femoral regions was determined as described above.

[7] = tested on: bilaterally ovariectomized (OVX) rats; test: Lipid metabolism (total cholesterol, HDL, LDL) in rat serum; assay type: in vivo, Sprague-Dawley female rats; settings: present-tense statement, no data
Experimental: as §1
(§6) In vivo experiments were conducted in order to investigate the efficacy of compounds of the presently-disclosed subject matter. In all of the experiments, OVX and sham operated rats were randomly divided into groups of 5-7 animals. […]
Quantitative Determination of Lipid Metabolism (Total Cholesterol HDL, and LDL) in Rat Serum. Total cholesterol, high-density lipoprotein (HDL), and low-density lipoprotein (LDL) were quantitatively determined in the serum of rats in order to evaluate the extraosseous effects of estrogen treatment on lipid metabolism. […]

[8] = tested on: bilaterally ovariectomized (OVX) rats; test: Volume fraction, ex vivo micro-computed tomography of tibia; assay type: in vivo, Sprague-Dawley female rats; settings: for bone density by trabecular volume fraction: ex vivo micro-CT, compared to OVX animals, FIG. 14; for bone density in three-dimensional micro-CT images: reconstructed images, FIG. 15
Experimental: as §1, §2, §4
Volume Fraction—Ex vivo micro-computed tomography (μCT). Volume fraction is a representative value for the amount of bone that occupies a given volume or space. […]

[9] = tested on: bilaterally ovariectomized (OVX) rats; test: Bone mechanical competence indentation test; assay type: in vivo, Sprague-Dawley female rats; settings: proximal tibial metaphysis, present-tense statement, no data
Experimental: as §1
In vivo experiments were conducted in order to investigate the efficacy of compounds of the presently-disclosed subject matter. In all of the experiments, OVX and sham operated rats were randomly divided into groups of 5-7 animals. In all of the studies experimental groups included: i) Sham-operated control (euthanized six weeks post surgery as a pretreatment control), ii) OVX control (euthanized six weeks post surgery as a pretreatment control), iii) Sham control receiving vehicle, iv) OVX control receiving vehicle, v) OVX receiving 17-ethinyl estradiol (equimolar concentration with a selected test compound), vi) OVX receiving alendronate (1.6 mg/kg), and vii) OVX receiving parathyroid hormone 1-34 (PTH) (80 μg/kg). 17-ethinyl estradiol (17 EE) is a free estrogenic agent known to be orally active, and can serve as an example of an anti-catabolic agent. […]

[10] = tested on: bilaterally ovariectomized (OVX) rats; test: Rat Osteocalcin EIA (serum); assay type: in vivo, Sprague-Dawley female rats; settings: versus OVX controls; FIG. 17
Experimental: as §1, §6
Rat Osteocalcin EIA. […] Rat serum osteocalcin levels were measured using the Rat Osteocalcin EIA Kit from Biomedical Technologies, Incorporated (Stoughton, Mass.) as recommended by the manufacturer.

ICR Swiss mice = test: Periosteal bone formation in mouse calvarial injection model; assay type: in vivo; settings: subcutaneous over calvariae; histomorphometry; present-tense statement, no data
Experimental: Stimulation of Periosteal Bone Formation in a Mouse Calvarial Injection Model. The anabolic (bone formation) potential of compounds of the presently-disclosed subject matter are evaluated in the mouse calvarial injection model. Briefly, 4-week-old ICR Swiss mice are injected subcutaneously over the surface of the calvariae with compounds of the presently-disclosed subject matter at concentrations of 0, 1, 3, and 10 mg/kg/day for 5 days (twice a day). Microtubule inhibitor TN-16 (5 mg/kg/day for 2 days, twice a day) are used as a positive control. Mice are sacrificed two weeks after the injections are completed. Dissected calvarial samples are fixed in 10% phosphate-buffered formalin for 2 days, decalcified in 10% EDTA for 2 weeks and then embedded in paraffin. Histological sections are cut and stained with H&E and orange G. New woven bone formation (new bone area) is quantified by histomorphometry using the OsteoMeasure system (OsteoMetrics Inc., Atlanta, Ga.).

[11] = OVX rats, oral, test compounds 25 or 250 μg/kg, 17-ethinyl estradiol equimolar, 3 times per week for 6 weeks, FIG. 8
[12] = OVX rats, oral, test compounds 25 or 250 μg/kg, 17-ethinyl estradiol equimolar, 3 times per week for 6 weeks
[13] = oral 3 times per week for 6 weeks, FIG. 1
[14] = proximal and distal left femur, FIGS. 5 and 6
[15] = oral 25 or 250 μg/kg, 3 times per week for 6 weeks, FIG. 7
[16] = proximal and distal left femur and left femoral diaphysis, oral 25 or 250 μg/kg, FIGS. 11, 12, 13

Compound: C[C@]12CC[C@@H]3c4ccc(O)cc4CC[C@H]3[C@@H]1CC[C@@H]2O [17,β-estradiol]
- Binding Index [1]: −8

Compound: C#C[C@]1(O)CC[C@H]2[C@@H]3CCc4cc(O)ccc4[C@H]3CC[C@@]21C [17-ethinyl estradiol, reference compound]
- effect on uterine mass [2, 11]: induced an increase
- effect on uterine mass to body weight ratio [2, 12]: induced an increase
- production of CTX-I (bone resorption) [3]: decreased the production of CTX-1 to below sham levels

Compound: COc1ccc(N)c(O)c1C(N)=O [BTA-2]
- effect on body weight [4, 13]: no effect
- effect on uterine mass ([2]; rat, in vivo, po): no effect
- whole bone density ([5]; FIG. 4): not significantly effected
- regional bone density [6, 14]: not significantly effected

Compound: NC(=O)c1c(OCc2ccccc2)ccc(N)c1O [BTA-3]
- effect on body weight [4, 13]: no effect
- effect on uterine mass ([2]; rat, in vivo, po): no effect
- whole bone density ([5]; FIG. 4): not significantly effected
- regional bone density [6, 14]: not significantly effected

Compound: CCCCOP(=O)(OCCCC)Oc1ccc2c(c1)CCC1C2CC[C@]2(C)C1CC[C@H]2OCCC(=O)Nc1ccc(OC)c(C(N)=O)c1O (stereo partly drawn) [Formula 66]
- effect on body weight [4, 15]: limited or no effect
- effect on uterine mass [2, 11]: limited or no effect
- effect on uterine mass to body weight ratio [2, 12]: limited or no effect
- effect on lipid metabolism [7]: limited or no effect
- whole bone density ([5]; oral 25 or 250 μg/kg, FIG. 10): in the same ranges as those animals receiving 17-ethinyl estradiol (17 EE), Alendronate (Alen), or Parathyroid hormone 1-34 (PTH)
- regional bone density [6, 16]: increased
- bone density by trabecular volume fraction [8]: increased
- bone density in three-dimensional micro-CT images [8]: affected an increase
- bone strength [9]: increase
- production of CTX-I (bone resorption) [3]: do not inhibit
- serum osteocalcin levels [10]: lower than in OVX controls
- new bone area (ICR Swiss mice): increase

Compound: COc1ccc(NC(=O)CCO[C@@H]2CCC3C4CCc5cc(OP(=O)(OCc6ccccc6)OCc6ccccc6)ccc5C4CC[C@]32C)c(O)c1C(N)=O (stereo partly drawn) [Formula 67]
- effect on body weight [4, 15]: limited or no effect
- effect on uterine mass [2, 11]: limited or no effect
- effect on uterine mass to body weight ratio [2, 12]: limited or no effect
- effect on lipid metabolism [7]: limited or no effect
- whole bone density ([5]; oral 25 or 250 μg/kg, FIG. 10): in the same ranges as those animals receiving 17-ethinyl estradiol (17 EE), Alendronate (Alen), or Parathyroid hormone 1-34 (PTH)
- regional bone density [6, 16]: increased
- bone density by trabecular volume fraction [8]: increased
- bone density in three-dimensional micro-CT images [8]: affected an increase
- bone strength [9]: increase
- production of CTX-I (bone resorption) [3]: do not inhibit
- serum osteocalcin levels [10]: lower than in OVX controls
- new bone area (ICR Swiss mice): increase
